From ChEMBL document CHEMBL1201862, “PubChem BioAssay data set” (2004)
Active and inactive are the calls of the source.

Assays:
[1] = biological target: T1, Tyrosine-protein phosphatase non-receptor type 7 (Homo sapiens, UniProt P35236); assay: HePTP tyrosine phosphatase activity blockers – biochemical, absorbance, leukemia target, primary screen (AID 521); format: functional
T1 sequence (P35236 whole entry): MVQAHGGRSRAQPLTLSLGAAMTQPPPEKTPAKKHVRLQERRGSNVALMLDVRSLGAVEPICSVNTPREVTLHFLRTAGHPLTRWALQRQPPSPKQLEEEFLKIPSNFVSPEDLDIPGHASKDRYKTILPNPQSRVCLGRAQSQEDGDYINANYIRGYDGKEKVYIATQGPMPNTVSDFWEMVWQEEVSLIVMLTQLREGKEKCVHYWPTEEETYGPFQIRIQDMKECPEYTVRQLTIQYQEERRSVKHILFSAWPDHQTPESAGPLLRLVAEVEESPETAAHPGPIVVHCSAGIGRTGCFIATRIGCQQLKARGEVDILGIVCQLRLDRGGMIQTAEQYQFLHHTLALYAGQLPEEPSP

[2] = biological target: Sphingosine 1-phosphate receptor 2 (Homo sapiens, UniProt O95136); assay: Dose Response Cell Based Assay for Agonists of the S1P2 Receptor. [Related pubchem assays: 729, 736, 843 ]; format: functional
[3] = biological target: Fructose-bisphosphate aldolase (Mycobacterium tuberculosis, UniProt P9WQA3); assay: Fluorescence-based biochemical high throughput dose response assay for inhibitors of the fructose-bisphosphate aldolase (FBA) of M. tuberculosis.; format: functional
[4] = viability inhibitors of stage V gametocytes – luminescence, dose response (AID 1117278); format: functional, cell-based;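 note: gametocytes exposed to compound for 24 hours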
[5] = viability loss in human Jurkat cells – cell-based, luminescence, cytotoxicity control for P. falciparum gametocyte viability project, dose response (AID 1117277); format: functional;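 note: potency reflects loss of cellular ATP meaning fewer viable cells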
cells [6] = format: functional, cell-based
cells [7] = format: functional, cell-based; remark: listed apart in the source
[8] = biological target: Mitogen-activated protein kinase 10 (Homo sapiens, UniProt P53779); assay: Dose response biochemical screening assay for inhibitors of c-Jun N-Terminal Kinase 3 (JNK3). [Related pubchem assays: 746 ]
[9] = microbe, parasite or virus in culture; format: functional; conditions: Mycobacterium tuberculosis
[10] = IC50 of Artemis nuclease activity blockers – biochemical, fluorescence intensity, dose response (AID 720701); format: functional;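 note: Artemis endonuclease enzyme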
Protein skinhead-1 = biological target: T2, Protein skinhead-1 (Caenorhabditis elegans, UniProt P34707); format: functional
T2 sequence (P34707 whole entry): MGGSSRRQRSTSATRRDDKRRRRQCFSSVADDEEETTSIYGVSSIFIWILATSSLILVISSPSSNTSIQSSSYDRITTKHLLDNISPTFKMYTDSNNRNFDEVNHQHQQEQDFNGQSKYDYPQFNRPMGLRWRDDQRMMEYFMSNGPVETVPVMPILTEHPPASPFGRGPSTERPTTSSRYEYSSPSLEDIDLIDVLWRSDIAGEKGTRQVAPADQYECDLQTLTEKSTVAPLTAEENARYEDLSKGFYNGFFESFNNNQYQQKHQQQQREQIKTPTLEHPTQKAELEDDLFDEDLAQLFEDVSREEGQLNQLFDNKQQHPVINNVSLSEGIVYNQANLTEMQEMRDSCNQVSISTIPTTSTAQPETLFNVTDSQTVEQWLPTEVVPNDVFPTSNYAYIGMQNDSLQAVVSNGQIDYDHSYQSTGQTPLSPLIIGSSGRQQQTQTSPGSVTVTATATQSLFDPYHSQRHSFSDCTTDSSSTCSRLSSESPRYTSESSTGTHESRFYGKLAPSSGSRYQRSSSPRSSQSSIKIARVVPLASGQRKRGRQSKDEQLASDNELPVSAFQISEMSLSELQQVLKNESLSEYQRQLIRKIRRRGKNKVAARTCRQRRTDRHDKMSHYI

[11] = biological target: T3, Runt-related transcription factor 1/Core-binding factor subunit beta (Homo sapiens, UniProt Q01196+Q13951); assay: Runt domain/CBFb-SMMHC interaction disruptors – biochemical, TR-FRET (AID 1438); format: protein assay
[12] = biological target: T3, Runt-related transcription factor 1/Core-binding factor subunit beta; assay: disruptors of Runt domain/CBFb-SMMHC interaction – biochemical, FRET, Cerulean-Runt, Venus-CBFb-SMMHC, uHTS, […] (AID 1434); format: protein assay
[13] = Luminescence Cell-Based Dose Retest to Confirm Inhibitors of Cancer Stem Cells. [Related pubchem assays (depositor defined):AID2717, AID2721]; format: functional; conditions: Homo sapiens
[14] = reduction of Shn3 3'UTR-driven luciferase in osteoblasts – cell-based, Clone20 osteoblasts, firefly luciferase, cherry-picked, dose response (AID 624132); format: functional;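 note: firefly luciferase luminescence from reporter carrying the Shn3 3'UTR in osteoblasts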
[15] = potency of ADAM10 substrate cleavage blockers – biochemical, QFRET, dose response (AID 743254);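 note: ADAM10 enzyme with the DM2 quenched FRET peptide as substrate; EDANS fluorescence gain as the protease cuts the substrate; inhibitor potency against ADAM10 proteolytic activity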
[16] = biological target: Disintegrin and metalloproteinase domain-containing protein 17 (Homo sapiens, UniProt P78536); assay: inhibition of ADAM17 substrate cleavage – biochemical, quenched FRET substrate, counter-screen for ADAM10 exosite inhibitor project, dose response (AID 743253)
[17] = loss of viability in HepG2 cells – cell-based, CellTiter-Glo, cherry-picked, cytotoxicity control for Shn3 inhibitor project, dose response (AID 624134); format: functional
[18] = biological target: T4, Rac GTPase-activating protein 1 (Homo sapiens, UniProt Q9H0H5); assay: blockers of MgcRacGAP-driven Rac1 GTP hydrolysis – biochemical, ADP Hunter fluorescence, primary and confirmatory, confirmation (AID 624330); format: functional
T4 sequence (Q9H0H5 whole entry): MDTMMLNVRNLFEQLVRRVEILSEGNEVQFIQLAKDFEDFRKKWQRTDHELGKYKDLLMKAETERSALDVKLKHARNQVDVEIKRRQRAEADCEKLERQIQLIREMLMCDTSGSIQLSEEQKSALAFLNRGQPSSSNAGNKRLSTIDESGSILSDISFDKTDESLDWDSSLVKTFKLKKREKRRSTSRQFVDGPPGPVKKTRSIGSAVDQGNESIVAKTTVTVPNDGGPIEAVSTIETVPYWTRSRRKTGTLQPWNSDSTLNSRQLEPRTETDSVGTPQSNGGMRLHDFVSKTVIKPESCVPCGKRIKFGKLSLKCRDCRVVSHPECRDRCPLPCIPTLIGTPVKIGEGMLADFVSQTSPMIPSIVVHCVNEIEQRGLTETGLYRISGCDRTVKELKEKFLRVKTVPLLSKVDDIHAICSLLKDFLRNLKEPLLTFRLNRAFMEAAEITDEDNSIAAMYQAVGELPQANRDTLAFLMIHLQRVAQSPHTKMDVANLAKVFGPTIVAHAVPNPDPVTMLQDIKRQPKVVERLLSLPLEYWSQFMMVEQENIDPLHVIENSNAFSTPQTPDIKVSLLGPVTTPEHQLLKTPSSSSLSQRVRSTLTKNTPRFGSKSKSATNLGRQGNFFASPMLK

Fatty acid synthase [19] = biological target: T5, Fatty acid synthase (Homo sapiens, UniProt P49327); assay: inhibition of human FAS-TE enzyme activity – biochemical, kinetic fluorescence intensity, dose response (AID 624326); format: functional;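 note: rate of fluorescence rise from hydrolysis of a fluorogenic O-methyl fluorescein ester substrate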
[20] = biological target: Tyrosyl-DNA phosphodiesterase 2 (Homo sapiens, UniProt O95551); assay: potency against TDP2 phosphodiesterase activity – biochemical, epi absorbance, IC50, dose response (AID 743297)
[21] = HGIII-sPLA2 enzyme inhibition potency – biochemical, QFRET, IC50, dose response (AID 743457);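 note: green fluorescence rise as the enzyme cleaves BODIPY PC-A2 in liposomes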
[22] = viability loss in HeLa cells – cytotoxicity control for MgcRacGAP inhibitor project, dose response (AID 624300); format: functional
Fatty acid synthase [23] = biological target: T5, Fatty acid synthase; assay: inhibition of human FAS-TE enzyme activity – biochemical, endpoint fluorescence intensity, uHTS hits, dose response (AID 624327); format: functional;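 note: fluorescence from hydrolysis of an O-methyl fluorescein acyl ester substrate by the enzyme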
Nonstructural protein 1 = Nonstructural protein 1 (Influenza A virus, UniProt Q194T2); format: functional, Influenza A virus (A/California/07/2009(H1N1))
H9c2 = assay: cells; format: functional, cell-based; conditions: Rattus norvegicus, H9c2, Myocardium
[24] = OVCAR-3 cell viability loss – plate reader, dry powder samples, PAX8 inhibitor project, dose response (AID 743044); format: functional, cell-based
[25] = OVCAR8 cell viability loss – plate reader, dry powder samples, PAX8 project, dose response (AID 743197); format: functional, cell-based; conditions: OVCAR-8
[26] = IGROV1 cell killing – plate reader, dry powder samples, PAX8 inhibitor project, dose response (AID 743043); format: functional, cell-based; conditions: IGROV-1
Paired box protein Pax-8 = Paired box protein Pax-8 (Homo sapiens, UniProt Q06710); assay: PAX8 transcriptional activity inhibition in RMG-I – RMG-I cells, luciferase, cherry-pick, dose response (AID 687027); format: functional, cell-based;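 note: luciferase reporter driven by Pax8 target thyroperoxidase promoter measured by SteadyGlo luminescence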
[27] = biological target: E3 ubiquitin-protein ligase Mdm2 (Homo sapiens, UniProt Q00987); assay: MDM2-luc reporter signal enhancers, multi-concentration potency testing, MDM2 ubiquitin-protein ligase inhibitor program, whole-cell format, luminescence detection, 384-well microplate (AID 1394); format: functional;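 note: MDM2 E3 inhibitors raise luminescence so EC50 is for signal enhancement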
E3 ubiquitin-protein ligase Mdm2, sequence (Q00987 whole entry): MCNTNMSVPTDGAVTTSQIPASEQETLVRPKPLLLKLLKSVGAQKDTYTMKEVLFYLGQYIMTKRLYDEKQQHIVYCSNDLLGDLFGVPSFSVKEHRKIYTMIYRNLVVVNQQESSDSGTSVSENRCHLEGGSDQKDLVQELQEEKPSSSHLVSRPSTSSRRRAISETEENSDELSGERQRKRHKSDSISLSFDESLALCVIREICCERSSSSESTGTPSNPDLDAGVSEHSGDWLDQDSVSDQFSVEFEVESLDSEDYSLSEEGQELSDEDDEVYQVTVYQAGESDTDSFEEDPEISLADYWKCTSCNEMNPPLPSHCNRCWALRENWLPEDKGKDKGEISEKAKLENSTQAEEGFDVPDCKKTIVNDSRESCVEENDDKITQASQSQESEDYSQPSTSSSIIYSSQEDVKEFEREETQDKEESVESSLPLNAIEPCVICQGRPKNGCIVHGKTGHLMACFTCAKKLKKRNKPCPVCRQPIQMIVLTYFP

Sphingosine 1-phosphate receptor 2, sequence (O95136 whole entry): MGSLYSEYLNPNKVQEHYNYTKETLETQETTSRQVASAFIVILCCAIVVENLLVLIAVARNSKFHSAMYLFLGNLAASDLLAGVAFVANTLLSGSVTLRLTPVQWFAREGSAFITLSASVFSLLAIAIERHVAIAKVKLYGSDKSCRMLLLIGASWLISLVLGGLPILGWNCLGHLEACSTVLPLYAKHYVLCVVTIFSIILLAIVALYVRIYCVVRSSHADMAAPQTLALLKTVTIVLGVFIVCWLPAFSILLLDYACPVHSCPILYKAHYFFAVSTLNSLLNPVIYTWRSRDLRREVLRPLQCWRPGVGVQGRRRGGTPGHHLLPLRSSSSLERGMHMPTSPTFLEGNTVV
T5 sequence (P49327 whole entry): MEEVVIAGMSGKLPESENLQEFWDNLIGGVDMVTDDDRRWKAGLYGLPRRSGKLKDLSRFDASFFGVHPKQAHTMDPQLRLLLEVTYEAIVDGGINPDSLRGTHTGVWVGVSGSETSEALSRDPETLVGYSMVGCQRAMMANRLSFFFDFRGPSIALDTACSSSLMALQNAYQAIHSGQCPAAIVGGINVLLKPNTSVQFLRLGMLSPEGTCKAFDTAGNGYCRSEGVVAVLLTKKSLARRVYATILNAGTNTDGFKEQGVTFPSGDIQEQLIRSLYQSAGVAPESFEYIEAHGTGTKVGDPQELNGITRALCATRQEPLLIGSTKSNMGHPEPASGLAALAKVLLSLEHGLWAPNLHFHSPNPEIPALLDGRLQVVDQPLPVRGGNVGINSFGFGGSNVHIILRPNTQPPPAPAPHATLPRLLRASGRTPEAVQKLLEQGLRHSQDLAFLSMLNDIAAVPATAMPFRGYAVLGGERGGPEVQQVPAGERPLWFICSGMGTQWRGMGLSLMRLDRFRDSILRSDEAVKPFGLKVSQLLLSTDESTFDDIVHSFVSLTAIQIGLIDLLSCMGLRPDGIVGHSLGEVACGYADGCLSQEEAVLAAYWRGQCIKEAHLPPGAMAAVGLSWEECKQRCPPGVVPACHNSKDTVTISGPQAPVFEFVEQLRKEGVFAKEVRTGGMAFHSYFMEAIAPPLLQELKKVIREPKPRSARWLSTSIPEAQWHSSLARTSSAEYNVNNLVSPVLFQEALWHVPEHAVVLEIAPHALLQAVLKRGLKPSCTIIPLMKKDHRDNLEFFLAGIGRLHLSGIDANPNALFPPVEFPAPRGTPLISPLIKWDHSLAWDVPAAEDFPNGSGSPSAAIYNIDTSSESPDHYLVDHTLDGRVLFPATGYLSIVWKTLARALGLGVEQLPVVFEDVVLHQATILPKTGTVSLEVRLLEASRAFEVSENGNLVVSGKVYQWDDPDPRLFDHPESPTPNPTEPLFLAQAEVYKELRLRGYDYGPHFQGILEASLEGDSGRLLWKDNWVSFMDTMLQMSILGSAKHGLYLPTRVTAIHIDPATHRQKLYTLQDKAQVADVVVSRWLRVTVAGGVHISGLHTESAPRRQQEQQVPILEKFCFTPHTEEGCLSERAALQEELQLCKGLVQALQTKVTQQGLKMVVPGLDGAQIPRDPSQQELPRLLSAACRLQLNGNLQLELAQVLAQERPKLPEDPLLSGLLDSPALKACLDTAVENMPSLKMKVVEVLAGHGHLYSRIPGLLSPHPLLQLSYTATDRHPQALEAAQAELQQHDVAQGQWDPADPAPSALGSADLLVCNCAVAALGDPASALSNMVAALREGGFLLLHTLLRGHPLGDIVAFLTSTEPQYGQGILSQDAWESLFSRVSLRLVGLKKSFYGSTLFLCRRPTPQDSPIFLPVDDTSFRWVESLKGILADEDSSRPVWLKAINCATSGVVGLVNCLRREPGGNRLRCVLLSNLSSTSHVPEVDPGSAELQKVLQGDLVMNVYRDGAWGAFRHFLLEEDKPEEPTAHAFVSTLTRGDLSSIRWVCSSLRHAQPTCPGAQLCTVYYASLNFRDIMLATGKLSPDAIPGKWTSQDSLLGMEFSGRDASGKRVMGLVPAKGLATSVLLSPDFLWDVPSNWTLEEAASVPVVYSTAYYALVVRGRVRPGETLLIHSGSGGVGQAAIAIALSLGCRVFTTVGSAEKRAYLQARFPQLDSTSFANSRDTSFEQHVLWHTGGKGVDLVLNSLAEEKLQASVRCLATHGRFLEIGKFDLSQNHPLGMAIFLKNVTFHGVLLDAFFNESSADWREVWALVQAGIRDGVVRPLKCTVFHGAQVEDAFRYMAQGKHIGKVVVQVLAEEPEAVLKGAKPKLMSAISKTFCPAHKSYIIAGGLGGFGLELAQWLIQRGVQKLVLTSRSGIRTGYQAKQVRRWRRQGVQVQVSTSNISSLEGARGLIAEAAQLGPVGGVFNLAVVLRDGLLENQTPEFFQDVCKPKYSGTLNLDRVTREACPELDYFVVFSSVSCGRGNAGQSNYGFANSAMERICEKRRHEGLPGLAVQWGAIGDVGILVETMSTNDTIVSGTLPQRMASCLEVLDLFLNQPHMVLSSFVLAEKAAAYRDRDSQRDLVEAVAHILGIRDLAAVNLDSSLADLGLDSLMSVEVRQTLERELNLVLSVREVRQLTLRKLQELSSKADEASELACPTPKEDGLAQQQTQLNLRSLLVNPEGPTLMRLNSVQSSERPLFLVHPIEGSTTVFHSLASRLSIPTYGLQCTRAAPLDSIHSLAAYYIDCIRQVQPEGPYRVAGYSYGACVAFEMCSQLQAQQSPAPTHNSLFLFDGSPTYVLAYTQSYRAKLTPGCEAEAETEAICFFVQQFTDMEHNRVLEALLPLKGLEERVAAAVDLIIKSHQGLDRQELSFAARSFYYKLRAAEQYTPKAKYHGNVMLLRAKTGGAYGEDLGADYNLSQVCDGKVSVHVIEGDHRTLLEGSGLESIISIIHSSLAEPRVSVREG
Paired box protein Pax-8, sequence (Q06710 whole entry): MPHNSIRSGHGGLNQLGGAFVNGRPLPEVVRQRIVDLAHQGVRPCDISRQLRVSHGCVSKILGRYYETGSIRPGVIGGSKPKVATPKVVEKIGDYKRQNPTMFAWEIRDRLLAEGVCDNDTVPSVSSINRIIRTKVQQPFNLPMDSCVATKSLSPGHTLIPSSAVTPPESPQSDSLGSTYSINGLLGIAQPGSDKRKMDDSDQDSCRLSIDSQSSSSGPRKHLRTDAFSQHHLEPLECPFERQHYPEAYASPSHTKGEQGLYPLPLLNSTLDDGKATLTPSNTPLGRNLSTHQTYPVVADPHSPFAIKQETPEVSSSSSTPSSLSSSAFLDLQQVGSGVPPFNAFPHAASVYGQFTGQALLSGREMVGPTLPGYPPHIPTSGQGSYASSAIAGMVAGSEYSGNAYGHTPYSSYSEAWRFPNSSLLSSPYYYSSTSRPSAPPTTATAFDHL
Disintegrin and metalloproteinase domain-containing protein 17, sequence (P78536 whole entry, the tested form may be a part): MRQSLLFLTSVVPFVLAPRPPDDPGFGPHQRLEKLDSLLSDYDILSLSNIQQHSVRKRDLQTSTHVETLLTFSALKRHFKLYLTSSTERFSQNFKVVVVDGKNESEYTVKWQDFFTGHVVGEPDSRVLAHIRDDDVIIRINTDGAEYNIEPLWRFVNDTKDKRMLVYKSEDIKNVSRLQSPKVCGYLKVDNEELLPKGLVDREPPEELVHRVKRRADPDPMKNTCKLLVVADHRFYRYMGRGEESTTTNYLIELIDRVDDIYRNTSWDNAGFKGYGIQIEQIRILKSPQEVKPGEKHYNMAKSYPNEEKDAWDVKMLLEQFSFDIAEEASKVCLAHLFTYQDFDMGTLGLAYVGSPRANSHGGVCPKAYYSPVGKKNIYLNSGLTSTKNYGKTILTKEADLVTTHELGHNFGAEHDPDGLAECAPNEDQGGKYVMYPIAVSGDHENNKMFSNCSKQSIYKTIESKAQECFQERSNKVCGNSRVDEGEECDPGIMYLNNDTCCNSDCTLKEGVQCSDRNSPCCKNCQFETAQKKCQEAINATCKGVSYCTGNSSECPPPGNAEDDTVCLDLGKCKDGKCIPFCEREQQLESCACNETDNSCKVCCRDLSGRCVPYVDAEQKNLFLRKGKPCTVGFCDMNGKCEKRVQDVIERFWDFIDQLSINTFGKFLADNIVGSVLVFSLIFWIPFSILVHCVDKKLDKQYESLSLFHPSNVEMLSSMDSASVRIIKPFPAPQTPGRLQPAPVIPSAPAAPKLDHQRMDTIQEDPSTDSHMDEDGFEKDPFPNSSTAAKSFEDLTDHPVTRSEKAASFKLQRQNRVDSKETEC
Mitogen-activated protein kinase 10, sequence (P53779 whole entry): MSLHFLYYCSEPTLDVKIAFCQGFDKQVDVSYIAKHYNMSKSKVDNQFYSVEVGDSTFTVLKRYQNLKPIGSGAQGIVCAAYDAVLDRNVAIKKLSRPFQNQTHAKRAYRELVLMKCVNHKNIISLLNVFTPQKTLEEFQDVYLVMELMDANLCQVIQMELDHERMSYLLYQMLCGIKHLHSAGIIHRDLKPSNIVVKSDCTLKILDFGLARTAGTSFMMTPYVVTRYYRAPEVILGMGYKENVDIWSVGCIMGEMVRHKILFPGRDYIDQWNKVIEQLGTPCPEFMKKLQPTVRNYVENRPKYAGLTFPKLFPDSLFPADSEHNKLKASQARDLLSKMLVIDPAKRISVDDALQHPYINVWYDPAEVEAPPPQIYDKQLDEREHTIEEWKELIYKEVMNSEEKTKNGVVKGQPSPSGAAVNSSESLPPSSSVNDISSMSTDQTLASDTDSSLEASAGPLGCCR

## CCCCNC(=O)c1cc(-c2ccc(OC)c(OC)c2)on1
[1]
  IC50: > 100 µM (not active)

## O=S(=O)(Cc1ccc(Cl)cc1)NCC1CCCO1 (stereo not given)
[2]
  EC50: > 50 µM (not active)

## O=C(Nc1nnc(-c2ccncc2)s1)C1CCCO1 (stereo not given)
[3]
  IC50: 1.09 µM (active)

## CCN(CC)c1ccc(C(=O)OCC(=O)N2CCN(c3ccccc3)CC2)cc1
[1]
  IC50: > 100 µM (not active)

## Cc1ccc(CNC(=O)C2CCN(S(=O)(=O)N3CCCCC3)CC2)cc1
[4]
  IC50: > 109 µM (inactive)
[5]
  IC50: > 83.4 µM (inactive)

## CCOC(=O)C1(C)NC(c2ccc(OC)cc2OC)C2C(=O)N(CC)C(=O)C21 (stereo not given)
Cells [6]
  EC50: > 350 µM (not active)
[4]
  IC50: > 109 µM (inactive)
[5]
  IC50: > 83.3 µM (inactive)
Cells [7]
  EC50: > 350 µM (not active)

## COc1ccc(NC(=O)CCCCn2c(=O)[nH]c3ccccc3c2=O)cc1
[8]
  IC50: 55.1 µM (not active)

## COc1cc(NC(=O)c2ccc(COc3ccccc3Br)o2)cc(OC)c1OC
[8]
  IC50: 33 µM (not active)
[9]
  CC50: > 40 µM (active)

## N=c1c(C(=O)NCc2ccccc2)cc2c(=O)n3ccccc3nc2n1Cc1ccco1
[10]
  IC50: > 20 µM (inactive)
Protein skinhead-1
  IC50: > 100 µM (inactive)
[11]
  IC50: 36.6 µM (active)
[12]
  IC50: 2.34 µM (active)

## COc1cccc(CNC(=O)CN(c2cc(C)cc(C)c2)S(=O)(=O)c2c(C)noc2C)c1
[2]
  EC50: > 50 µM (not active)

## C[C@@H]1CN([C@@H](C)CO)C(=O)c2cc(NC(=O)Nc3ccc(F)cc3)ccc2O[C@@H]1CN(C)Cc1ccc(Oc2ccccc2)cc1
[13]
  AC50: 2.95 µM (active)
[14]
  AC50: 9.38 µM (active)
[15]
  IC50: > 2.58 µM (active)
[16]
  IC50: > 69.5 µM (inactive)
[17]
  AC50: 18.7 µM (active)

## CCOC(=O)c1cc2c(=Cc3ccc(N(C)C)cc3)c3ccccc3n2[n+]1C
[18]
  IC50: 42.5 µM (active)
Fatty acid synthase [19]
  IC50: 8.42 µM (active)
[20]
  IC50: > 128 µM (inactive)
[21]
  IC50: 36.1 µM (inactive)
[22]
  CC50: 100 µM (active)
Fatty acid synthase [23]
  IC50: 12.9 µM (active)
Nonstructural protein 1
  IC50: 12 µM (active)

## CCCCCCn1cnc2c(c1=O)c1nc3ccccc3nc1n2/N=C/c1ccco1
[10]
  IC50: > 20 µM (inactive)
H9c2
  IC50: 19.1 µM (active)

## CN1CCN(C(=O)C2Cc3c(-c4ccc5c(c4)OCO5)ccnc3O2)CC1 (stereo not given)
[3]
  IC50: 1.73 µM (active)

## COc1ccc(S(=O)(=O)Nc2ccc3c(c2)C(=O)N([C@H](C)CO)C[C@@H](C)[C@H](CN(C)S(=O)(=O)c2ccc(Cl)cc2)OCCCC[C@H](C)O3)cc1
[24]
  AC50: 33.5 µM (active)
[25]
  AC50: > 70 µM (inactive)
[26]
  AC50: 34.6 µM (active)
Paired box protein Pax-8
  AC50: 3.99 µM (active)

## C[C@H]1CCCCO[C@@H](CN(C)Cc2ccccc2)[C@@H](C)CN([C@@H](C)CO)C(=O)c2cc(NC(=O)Nc3ccc(C(F)(F)F)cc3)ccc2O1
[24]
  AC50: 60.4 µM (active)
[25]
  AC50: 42 µM (active)
[26]
  AC50: 48.1 µM (active)
Paired box protein Pax-8
  AC50: 11.6 µM (active)

## CCOc1ccc(-n2c(SCC(=O)Nc3ccc(S(=O)(=O)Nc4nccs4)cc3)nnc2-c2ccc(C(C)(C)C)cc2)cc1
[15]
  IC50: 9.71 µM (active)
[16]
  IC50: > 69.5 µM (inactive)

## COc1ccc(OCC(=O)N/N=C(\C)CC(=O)Nc2cccc([N+](=O)[O-])c2)cc1
[27]
  EC50: 15.7 µM (not active)

## O=C1CN(c2cc(Cl)cc(Cl)c2)C(=O)CN1/N=C/c1cccnc1
[27]
  EC50: 0.01 µM (not active)
